# Results as given in US20210069198A1 (HANYI BIO-TECHNOLOGY (BEIJING) CO., LTD., priority 2017, published 2021).
# Test system: rat anxiety behavior induced by high-dose intake of caffeine
# Assay: Elevated plus-maze test, Test 1: CBD against caffeine-induced anxiety behavior
# Assay type: in vivo, wistar rats
# Protocol: Test Animals: 50 SPF male wistar rats (180-200 g). Feeding Conditions: SPF animal houses, free feeding, 12 h light/12 h darkness.
# Each CBD administration group was also intragastrically administrated with a corresponding dose of a CBD soybean oil solution at the same time, and then an elevated plus-maze test was conducted within 30 minutes after administration.
# Elevated Plus-maze (EMP) Test: A maze was cross-shaped and consists of 2 open arms (OAs), two closed arms (CAs) and a central platform. The maze was fixed on a support, 50 cm above the ground. A camera was placed above the central platform. The behaviors of rats were recorded and analyzed through a computer. The test was conducted in a quiet shaded condition. Before the test, the rats to be tested were placed in one rat cage. After freely exploring for 5 minutes, the rats were quickly placed on the central platform of the EMP. The observation test was started immediately after release. Each rat was tested for five minutes. After each rat was tested, the maze was thoroughly cleaned with a towel dipped in clean water and low-concentration ethanol. After the ethanol volatilizes and diffuses, the test on the next rat began.
# (1) Open arm entry (OE): the number of entries into any open arm was based on the fact that four paws of each rat were located within the arms, and when any paw was completely withdrawn from the arms halfway, the current entry event was deemed as being completed.
# (2) Open arm time (OT): it was measured in second.
# (3) Closed arm entry (CE): the number of entries into any closed arm, which was determined based on the same standard as OE.
# (4) Closed arm time (CT): it was measured in second.
# (5) Calculation of the proportion of the number of entries into the open arm (OE %): namely, OE/(OE+CE)×100%.
# (6) Proportion of residence time in the open arms (OT %): namely, OT/(OT+CT)×100%. OE % and OT % were used as indexes for evaluating the anxiety state of rats.
# The data was expressed with x±s. One-way analysis of variance (one way ANOVA) was used to compare multi-sample means, and t test was used for inter-group comparison.
# [1] = CBD 1 mg/kg intragastric together with 60 mg/kg caffeine
# [2] = CBD 10 mg/kg intragastric together with 60 mg/kg caffeine
# [3] = CBD 100 mg/kg intragastric together with 60 mg/kg caffeine
# [4] = caffeine model group, 60 mg/kg caffeine intragastric, no CBD
structure (smiles),measurement,setting,value
"C=C(C)[C@@H]1CCC(C)=C[C@H]1c1c(O)cc(CCCCC)cc1O [CBD, Cannabidiol]",OE (open arm entry),CBD 1 mg/kg in soybean oil intragastric together with 60 mg/kg caffeine,3.2 ± 0.45 times
same,CE (closed arm entry),[1],7.0 ± 0.92 times
same,CT (closed arm time),[1],244 ± 5.14 s
same,OE % (proportion of entries into the open arm),[1],31.37%
same,OT % (proportion of residence time in the open arms),[1],19.24%
same,OT (open arm time),[1],58.1 ± 3.30 s
same,CE (closed arm entry),[2],5.3 ± 1.07 times
same,CT (closed arm time),[2],214 ± 4.01 s
same,OE % (proportion of entries into the open arm),[2],47.52%
same,OE (open arm entry),[2],4.8 ± 0.91 times
same,OT % (proportion of residence time in the open arms),[2],28.43%
same,OT (open arm time),[2],85 ± 2.07 s
same,CE (closed arm entry),[3],4.5 ± 0.91 times
same,CT (closed arm time),[3],201 ± 3.05 s
same,OE % (proportion of entries into the open arm),[3],54.00%
same,OE (open arm entry),[3],5.4 ± 0.25 times
same,OT % (proportion of residence time in the open arms),[3],33.22%
same,OT (open arm time),[3],100 ± 1.32 s
same,effect on the anxiety behavior of rats (in words),CBD 1-100 mg/kg intragastric together with 60 mg/kg caffeine,significant effect on inhibiting the anxiety behavior
Cn1c(=O)c2c(ncn2C)n(C)c1=O [Caffeine],CE (closed arm entry),[4],7.8 ± 0.11 times
same,CT (closed arm time),[4],253 ± 5.09 s
same,OE % (proportion of entries into the open arm),[4],21.21%
same,OT (open arm time),[4],42.9 ± 1.89 s
same,OE (open arm entry),"caffeine model group, 60 mg/kg caffeine saline solution intragastric, no CBD, EPM within 30 min, 5 min test",2.1 ± 0.78 times
